Test results reported in US20090018146A1, “Combination Therapy with Triterpenoid Compounds and Proteasome Inhibitors” (Research Development Corporation, priority 2005, published 2009).
Residues, ends and D or L forms follow the SMILES beside them. *: point of attachment. Cbz = O=C(OCc1ccccc1)*; CH2F = FC*

Experiments:
XIAP = test: Western blot of XIAP protein in Jurkat cells; assay type: cell-based, human
Description: (§1) Jurkat T cells (2 μg/ml=1 μM), U-937 (4 μg/ml), MJ (5 μg/ml), and HH cells (2.5 μg/ml) were treated for 0-24 hours with the indicated concentrations of avicin D. PBLs from the patients or normal blood were treated with 5 μg/ml of avicin D for 24 hours.
(§2) At the end of treatments, cells were harvested, washed with sterile ice-cold PBS and cytoplasmic extracts (CE) were prepared by lysing the cells in CE buffer containing 10 mM Hepes-Cl pH 7.5, 10 mM KCl, 0.1 mM EDTA, 0.1 mM EGTA, 0.3% NP40, and a protease inhibitor cocktail (Sigma). After centrifugation and separating the supernatant (CE proteins), the pellet was resuspended in a buffer containing 20 mM Hepes-Cl, 400 mM NaCl, 1 mM EDTA, 1 mM EGTA, and protease inhibitor cocktail (Sigma). The nuclear protein extraction proceeded for 30 min. on ice followed by centrifugation at 14,000 rpm for 5 min at 4° C. The clear supernatant containing nuclear proteins (NE) was collected, glycerol (10%) was added, and proteins stored at −80° C. until use.
(§3) SDS-PAGE and immunoblot procedures were essentially performed as described (Sambrook, 1989). Briefly, cytoplasmic and nuclear proteins were resolved on SDS-PAGE, blotted on PVDF membranes (BioRad) and probed with various antibodies followed with anti-rabbit, anti-mouse antibody conjugated to horseradish peroxidase (HRP) from BioRad or HRP conjugated anti-goat antibody from Santa Cruz Biotechnology, corresponding to the primary antibody. Protein bands were detected using the ECL chemiluminescence kit from Amersham as per the manufacturer's protocol.
(§4) Quantitation of proteins (western) and transcripts (RT-PCR) was performed using the NIH 1.61 image software.

Hsp70 = test: Western blot of Hsp70 protein in avicin D treated Jurkat cells; assay type: cell-based, human
Description: as §1, §2, §3, §4

S. pombe = test: Effects of avicin G on the growth of S. pombe wild type and mutants; assay type: cell-based, Schizosaccharomyces pombe; settings: for sensitivity to avicin G relative to wild-type: 26° C.
Description: FIGS. 10A and 10B: Effects of Avicin G on the Growth of S. pombe Mutants. Wild type, mts2-1 (mts2), mts3-1 (mts3), and nuc2-663 cells were spread on YEAU plates. Avicin G (25 jug) was then spotted onto the respective cell lawns and the plates were incubated at 26° C. for 5 days. The relative avicin G sensitivity of each strain, based on measurements of areas of avicin G-induced growth inhibition, was then determined, with wild-type cells being normalized to a value of 1 (FIG. 10A).
(§5) Standard yeast culture media and genetic methods were used (Alfa et al., 1993; Rose et al., 1990). S. pombe cultures were grown in either YEAU (0.5% yeast extract, 3% dextrose, 75 […]) or synthetic minimal medium (EMM) with appropriate supplements.

S. pombe cells = test: Detection of ubiquitinated proteins in S. pombe; assay type: cell-based, Schizosaccharomyces pombe; settings: wild type S. pombe, 20 μg/ml avicin G, after 90 minutes (1.5 hours), immunoblot
Description: as §5
S. pombe cultures were lysed with glass beads in PEM buffer (100 mM PIPES, 1 mM EGTA, 1 mM MgSO4, pH 6.9) containing 4 mM benzamide, 10 μM E64, 50 μM leupeptin, 1 μM pepstatin, 1 mM phenylmethanesulfonyl fluoride, and 2 μg/ml aprotinin essentially as described in (Yen et al., 2003). Equal amounts of protein were resolved by SDS-PAGE and subsequent immunoblotting using anti-ubiquitin mouse monoclonal antibody (Stressgen Biotechnologies).

his-ub-Hsp70 = test: In vivo ubiquitination of Hsp70 in his-ub transfected Jurkat cells; assay type: cell-based, human; settings: lactacystin 10 μM 30 minutes pretreatment, then avicin D 4 hours
Description: Jurkat T-cells were transfected with a plasmid pDG268 that expresses a fusion protein of histidine-tagged human ubiquitin and enhanced GFP. Transfection was performed using μm ax a Biosystems kit and their protocol. After 24 hours of transfection, cells were harvested, resuspended at a density of 10^6 cells/ml before treatment with lactacystin or avicin D.
Jurkat T cells transfected with the his-ub plasmid construct were treated with lactacystin (10 μM) or with avicin D (1 μM) for 4 hours. Cells were harvested and CE prepared as described above. […] The affinity purified histidine-tagged proteins were separated on SDS-PAGE and analyzed on western blots for ub-Hsp70 proteins.

Hsp90 = test: Western blot of Hsp90 protein in avicin D treated Jurkat cells; assay type: cell-based, human; settings: lactacystin 10 μM 30 minutes, then avicin D 4 hours
Description: as §1, §2
SDS-PAGE and immunoblot procedures were essentially performed as described (Sambrook, 1989). […] Protein bands were detected using the ECL chemiluminescence kit from Amersham as per the manufacturer's protocol.
as §4

20S activity = settings: general statement on proteasome inhibitors; cited from earlier work

## COC(=O)C[C@H](NC(=O)[C@H](C)NC(=O)[C@@H](NC(=O)OCc1ccccc1)C(C)C)C(=O)CF [zVAD-fmk, reference compound] (Cbz-Val-Ala-Asp(OMe)-CH2F)
XIAP; zVAD-FMK 50 μM prior to avicin D 4 hours
  block of avicin-induced XIAP degradation: −22%
Hsp70; zVAD-FMK 50 μM 30 minutes prior to avicin D 1 μM 4 hours
  effect of caspase inhibition on the avicin-induced degradation of Hsp70: no significant effect

## C=C[C@](C)(O)CC/C=C(\C)C(=O)O[C@H]1[C@H](O)[C@@H](O)[C@H](O[C@@](C)(C=C)CC/C=C(\CO)C(=O)O[C@H]2C[C@]3(C(=O)O[C@@H]4O[C@H](CO)[C@@H](O)[C@H](O)[C@H]4O[C@@H]4O[C@@H](C)[C@H](O[C@@H]5O[C@@H](CO)[C@H](O)[C@H]5O)[C@@H](O[C@@H]5O[C@H](CO)[C@@H](O)[C@H](O)[C@H]5O)[C@H]4O)[C@H](O)C[C@]4(C)C(=CC[C@@H]5[C@@]6(C)CC[C@H](O[C@@H]7O[C@H](CO[C@@H]8O[C@H](C)[C@H](O)[C@H](O)[C@H]8O[C@@H]8OC[C@@H](O)[C@H](O)[C@H]8O)[C@@H](O)[C@H](O)[C@H]7NC(C)=O)C(C)(C)[C@@H]6CC[C@]54C)[C@@H]3CC2(C)C)O[C@@H]1C [avicin G]
S. pombe; mts2-1 26S proteasome mutant, 25 μg spotted, 5 days
  sensitivity to avicin G relative to wild-type: only slightly increased
S. pombe; mts3-1 26S proteasome mutant, 25 μg spotted, 5 days
  sensitivity to avicin G relative to wild-type: only slightly increased
S. pombe; nuc2-663 APC mutant
  sensitivity to avicin G relative to wild-type: markedly resistant
S. pombe; nuc2-663 cells, 5 days at 26° C.
  growth on YEAU containing 16 μg/ml avicin G: grew
S. pombe cells
  levels of ubiquitinated proteins: increase in the levels of ubiquitinated proteins

## CC(=O)N[C@@H](CSC(=O)[C@]1([C@@H](O)C(C)C)NC(=O)[C@H](C)[C@@H]1O)C(=O)O [lactacystin, reference compound]
XIAP; lactacystin 30 minutes prior to avicin D 4 hours
  effect of lactacystin on the avicin induced XIAP decrease: blocked
his-ub-Hsp70
  effect of lactacystin on the avicin-induced decrease of his-ub-Hsp70: sensitive to lactacystin
Hsp70; lactacystin 10 μM 30 minutes, then avicin D 4 hours
  effect of lactacystin pretreatment on the avicin-induced decrease in Hsp70 protein: totally reversed
Hsp90
  effect of lactacystin pretreatment on the avicin-induced decrease in Hsp90 protein: totally reversed

## CC(C)C[C@H](NC(=O)[C@H](Cc1ccccc1)NC(=O)c1cnccn1)B(O)O [PS341]
20S activity
  suppression of 20S activity: suppress 20S activity completely
